This is an account of results in US20250127906A1, “SMALL-MOLECULE DEGRADERS OF CDK8 AND CDK19” (University of South Carolina, priority 2021, published 2025).

Series [1] has as its target T1, CDK19 (Homo sapiens, UniProt Q9BWU1). Nature of the series: CDK19 degradation in HEK-293 cells with CRISPR knockout of CCNC. It counts as cell-based. Further details: a derivative of HEK-293cells with CRISPR-mediated knockout of CCNC; endogenous in cells; host or cells: HEK-293 with CRISPR knockout of CCNC. The following applies: HEK-293 CCNC-knockout cells, 24 hr treatment. The source says:
(§1) This cell line, however, is unique in lacking Cyclin C (CCNC), the binding partner of CDK8/19. To test if the absence of CDK8-bound CCNC was responsible for the loss of IA7843 CDK8-degrading activity, we have tested the effect of IA7843 on a derivative of HEK-293cells with CRISPR-mediated knockout of CCNC.
Target sequence in this assay (Q9BWU1 whole entry): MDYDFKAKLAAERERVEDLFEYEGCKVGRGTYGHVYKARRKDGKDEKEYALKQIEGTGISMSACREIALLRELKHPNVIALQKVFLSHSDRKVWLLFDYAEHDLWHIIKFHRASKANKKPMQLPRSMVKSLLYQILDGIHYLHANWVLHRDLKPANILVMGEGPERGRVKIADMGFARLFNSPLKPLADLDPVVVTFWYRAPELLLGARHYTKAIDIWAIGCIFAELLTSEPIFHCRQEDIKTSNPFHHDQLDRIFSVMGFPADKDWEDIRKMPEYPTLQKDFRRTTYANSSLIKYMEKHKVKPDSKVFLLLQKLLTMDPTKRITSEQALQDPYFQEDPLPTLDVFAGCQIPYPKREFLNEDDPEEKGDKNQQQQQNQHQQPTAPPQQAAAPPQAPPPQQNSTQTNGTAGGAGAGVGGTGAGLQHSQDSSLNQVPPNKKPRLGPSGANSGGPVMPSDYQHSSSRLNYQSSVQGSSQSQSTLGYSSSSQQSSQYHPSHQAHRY

Series [2] can be described thus: Serum drug concentrations in CD-1 mice (LCMSMS). It counts as in vivo. The settings on record: female CD-1 mice, i.p. 15 mg/kg, 15 min and 1 hr. The procedure: For preliminary evaluation of the bioavailability of the PROTACs, IA7882 and IA7886 were administered to female CD-1 mice via intraperitoneal (i.p.) injection at the dose of 15 mg/kg. Drug concentrations were measured by LCMSMS analysis of serum samples collected at 15 min and 1 hr time point.

Series [3] concerns the target T2, CDK8 (Mus musculus, UniProt Q8R3L8).
T2 sequence (Q8R3L8 1-464): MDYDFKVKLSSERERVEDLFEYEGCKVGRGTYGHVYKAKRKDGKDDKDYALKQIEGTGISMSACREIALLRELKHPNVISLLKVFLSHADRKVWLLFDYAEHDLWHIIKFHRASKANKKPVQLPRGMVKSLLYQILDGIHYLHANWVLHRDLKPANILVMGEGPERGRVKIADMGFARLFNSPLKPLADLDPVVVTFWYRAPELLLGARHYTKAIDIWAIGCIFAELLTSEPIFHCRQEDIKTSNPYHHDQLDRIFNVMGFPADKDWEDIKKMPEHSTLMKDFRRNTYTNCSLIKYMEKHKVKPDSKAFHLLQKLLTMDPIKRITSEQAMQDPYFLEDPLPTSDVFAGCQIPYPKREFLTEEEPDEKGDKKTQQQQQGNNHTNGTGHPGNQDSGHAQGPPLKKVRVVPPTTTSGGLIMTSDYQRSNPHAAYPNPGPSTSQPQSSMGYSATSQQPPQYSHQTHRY
T2 sequence (Q62447 1-283 partner): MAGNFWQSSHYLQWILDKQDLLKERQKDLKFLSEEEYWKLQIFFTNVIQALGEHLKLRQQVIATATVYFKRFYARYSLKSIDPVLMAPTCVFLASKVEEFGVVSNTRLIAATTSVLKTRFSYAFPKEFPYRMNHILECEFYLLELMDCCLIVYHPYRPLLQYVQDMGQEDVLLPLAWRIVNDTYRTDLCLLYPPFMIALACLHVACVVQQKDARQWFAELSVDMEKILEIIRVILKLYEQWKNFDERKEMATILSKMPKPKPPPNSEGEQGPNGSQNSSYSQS
Nature of the series: CDK8 protein level in CT26 tumors in Balb/c mice. It is filed as in vivo. Further details: from tissue; host or cells: subcutaneous CT26 tumours in Balb/c female mice. The following applies: oral gavage 20 mg/kg, 2, 8 or 24 hrs after dosing. On the procedure: (§2) CT26 cells were injected subcutaneously into syngeneic Balb/c female mice and allowed to grow to 150˜200 mm^3. Tumor-bearing mice then received PROTACs IA7882 or IA7886 by oral gavage at 20 mg/kg in 30% propylene glycol/70% PEG-400 vehicle. Tumors were collected 2, 8 or 24 hrs after dosing and used to measure protein levels of CDK8, pS727 STAT1 and total STAT1 (by western blotting) and mRNA expression of CCL12, a gene that is inhibited by different CDK8/19 inhibitors in CT26 tumors in vivo (by QPCR).

In series [4] the target is T3, CDK8 (Homo sapiens, UniProt P49336). In words: CDK8 degradation in Loucy T-cell leukemia cells lacking Cyclin C. It is filed as cell-based. More on the design: endogenous in cells; host or cells: Loucy. The following applies: Loucy cells (lacking CCNC), 24 hr treatment.
Description: as §1
Target sequence in this assay (P49336 whole entry): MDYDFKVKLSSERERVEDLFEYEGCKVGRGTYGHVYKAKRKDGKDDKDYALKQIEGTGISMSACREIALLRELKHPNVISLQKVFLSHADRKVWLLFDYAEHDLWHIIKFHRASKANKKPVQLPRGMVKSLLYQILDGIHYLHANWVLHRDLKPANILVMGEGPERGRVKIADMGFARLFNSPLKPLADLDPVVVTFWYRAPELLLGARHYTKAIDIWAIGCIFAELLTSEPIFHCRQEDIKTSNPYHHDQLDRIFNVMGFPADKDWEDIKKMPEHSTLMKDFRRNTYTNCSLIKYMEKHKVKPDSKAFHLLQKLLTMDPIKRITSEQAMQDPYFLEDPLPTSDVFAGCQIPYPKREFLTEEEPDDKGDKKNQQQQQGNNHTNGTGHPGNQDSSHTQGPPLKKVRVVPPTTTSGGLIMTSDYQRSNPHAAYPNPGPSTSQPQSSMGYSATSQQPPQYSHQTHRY

Series [5] concerns the target T3, CDK8. In words: CDK8 degradation in HEK-293 cells with CRISPR knockout of CCNC. The following applies: HEK-293 CCNC-knockout cells, 24 hr treatment. Further details: a derivative of HEK-293cells with CRISPR-mediated knockout of CCNC; endogenous in cells; host or cells: HEK-293 with CRISPR knockout of CCNC. It is filed as cell-based.
Description: as §1
Target sequence in this assay (P49336 whole entry): as above

Series [6] addresses T1, CDK19. In words: CDK19 degradation in HEK-293 cells (Western blot). The following applies: concentration degrading CDK19 to half of level in untreated cells. More on the design: PROTACs on CDK8 and CDK19 degradation in HEK-293cells; endogenous in cells; host or cells: HEK-293. It is filed as cell-based. From the text:
Furthermore, the degradation of both CDK8 and CDK19 by the PROTACs is also seen to decrease the levels of their binding partner cyclin C (CCNC) (FIG. 2B, D, E), which is known to be protected from proteolytic degradation by its interaction with CDK8 (Barette et al., 2001).
FIGS. 2F and 2G show the effects of different concentrations of potent Senexin C- and BI-1347-based PROTACs on CDK8 and CDK19 degradation in HEK-293cells. Based on these assays, we calculated DC50 values that correspond to PROTAC concentrations inducing degradation of CDK8 and CDK19 to the half of protein level in untreated cells. The corresponding CDK8 DC50 values were 46 nM for IA7843, 6.6 nM for IA7882 and 2.8 nM for IA7886, and CDK19 DC50 values were 1 μM for IA7843, 25 nM for IA7882 and 10 nM for IA7886.
Target sequence in this assay (Q9BWU1 whole entry): as the sequence (Q9BWU1 whole entry) above
Target sequence in this assay (P24863 whole entry partner): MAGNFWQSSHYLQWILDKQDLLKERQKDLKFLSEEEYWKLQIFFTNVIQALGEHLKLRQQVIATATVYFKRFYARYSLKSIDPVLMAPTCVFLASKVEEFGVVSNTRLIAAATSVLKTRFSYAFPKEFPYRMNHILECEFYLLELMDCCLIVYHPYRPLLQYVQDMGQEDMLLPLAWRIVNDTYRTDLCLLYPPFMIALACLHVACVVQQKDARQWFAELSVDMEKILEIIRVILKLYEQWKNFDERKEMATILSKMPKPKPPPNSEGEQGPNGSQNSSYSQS
On the technique in general: A western blot detects proteins with antibodies after separation by electrophoresis.

Another series has as its system CCL12. Nature of the series: CCL12 mRNA expression in CT26 tumors in Balb/c mice (QPCR). It counts as in vivo. The settings on record: oral gavage 20 mg/kg, 2, 8 or 24 hrs after dosing. The procedure: as §2
Series [7] has as its target T3, CDK8. In words: CDK8 degradation in HEK-293 cells (Western blot, normalized by GAPDH). More on the design: endogenous in cells; host or cells: HEK-293. It is filed as cell-based. The settings on record: HEK-293 cells. A digest of the protocol: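 HEK-293 cells were treated for 24 h with or without compound, at 1 μM or 0.3 μM for single-point testing. RIPA lysates were immunoblotted for CDK8, and densitometry gave levels normalized to GAPDH. DC50 is the concentration that reduces CDK8 to half its level in untreated cells.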
Target sequence in this assay (P49336 whole entry): as the sequence (P49336 whole entry) above
Target sequence in this assay (P24863 whole entry partner): as the sequence (P24863 whole entry partner) above

Series [8] has as its target T1, CDK19. Nature of the series: CDK19 degradation in Loucy T-cell leukemia cells lacking Cyclin C. It is filed as cell-based. More on the design: endogenous in cells; host or cells: Loucy. The following applies: Loucy cells (lacking CCNC), 24 hr treatment.
Description: as §1
Target sequence in this assay (Q9BWU1 whole entry): as the sequence (Q9BWU1 whole entry) above

The test system of series [9] is pS727 STAT1 and total STAT1. In words: pS727 STAT1 and total STAT1 in CT26 tumors in Balb/c mice. It is filed as in vivo. The following applies: oral gavage 20 mg/kg, 2, 8 or 24 hrs after dosing. The procedure:
as §2

As a reminder, the DC50 is the concentration giving 50% degradation.

Take `O=C1CCC(N2C(=O)c3cccc(NCCOCCOCCOCCOCCC(=O)N4CCN(C(=O)Cn5cc(-c6ccc(-c7cncc8ccccc78)cc6)cn5)CC4)c3C2=O)C(=O)N1` (centres unmarked) [IA7882, 2-(2,6-dioxo-3-piperidyl)-4-[2-[2-[2-[2-[3-[4-[2-[4-[4-(4-isoquinolyl)phenyl]pyrazol-1-yl]acetyl]piperazin-1-yl]-3-oxo-propoxy]ethoxy]ethoxy]ethoxy]ethylamino]isoindoline-1,3-dione]: the “CDK19 degradation (in words)” value is “efficiently degraded CDK8 and CDK19” at CDK19 [1]; “efficiently degraded CDK8 and CDK19” on CDK19 [8]. Also, the serum drug concentrations result in series [2] is “readily measurable and were higher for IA7882 than for IA7886”. Further, at CDK8 [3], the “CDK8 levels in tumor extracts” value is “decreased in most of the tumor extracts collected 2 hrs or 8 hrs after dosing”. The “CDK8 degradation (in words)” value on CDK8 [4] is “efficiently degraded CDK8 and CDK19”; on CDK8 [5], “efficiently degraded CDK8 and CDK19”. In addition, the results for the DC50 on CDK19 [6] and at CDK8 [7] (concentration degrading CDK8 to half of level in untreated cells) were 25 nM and 6.6 nM, respectively. The “levels of CCL12 mRNA in tumors” value in the series with CCL12 is given as “decreased in tumors treated with IA7882 or IA7886 2 hrs or 8 hrs (but not 24 hrs) after dosing”. Further, the “% CDK8 remaining” value on CDK8 [7] (24 hours, tested at 1 μM) amounted to 12%. The “pS727 STAT1 and total STAT1 in tumors” value in [9] is on record as “decreased in most of the tumors collected 2 hrs or 8 hrs after dosing”.
